The source of these data is article PMC9243584, “Population Pharmacokinetics of Colistin Sulfate in Critically Ill Patients: Exposure and Clinical Efficacy” (Frontiers in Pharmacology, 2022).

Structures can show the parent of a compound that is named as a salt. Where two headings read alike, the source gives them in different places. Positions of bridges follow the written chain, without caps; N, C: chain ends. Non-standard residues stand in square brackets, D forms with d. Residues, ends and D or L forms follow the SMILES beside them. *: point of attachment. X1 = CC[C@H](C)CCCCC(=O)*; Dab = NCC[C@H](N)C(=O)O

On the set-up of series [1]: method as in 2 sources, one per row (each row's own in cited_ref): ref Yu et al., 2021 ||| ref Wang et al., 2020. Conditions: cited from earlier work.
The conditions of series [2]: ref Han et al., 2022; cited from earlier work. The text has this: It should be noted that the currently used colistin sulfate in China was reapproved for clinical use by the Chinese National Medical Products Administration (NPMA) in 2018. Thus, modern pharmacological data including the clinical efficacy and side effects have not been reported. […] The clinical efficacy of colistin sulfate in the current study was similar to the efficacy of polymyxin B reported by [Lu et al. (2021]), who performed a retrospec ... || Nephrotoxicity is the main toxicity of concern with the treatment of polymyxins. However, it is amazing that no patient developed colistin sulfate-related nephrotoxicity in our study. […] Considering that polymyxin B and colistin have very similar molecular structures and PK characteristics, it is reasonable to conclude that the safety threshold of nephrotoxicity of colistin sulfate approaches that of polymyxin B. In the current study, most patient ...

The next series concerns CRO. The conditions noted are these: retrospective study, Chinese patients with CRO infections, median daily dose 1.72 mg/kg; ref Lu et al. (2021); cited from earlier work. The text has this: (§1) It should be noted that the currently used colistin sulfate in China was reapproved for clinical use by the Chinese National Medical Products Administration (NPMA) in 2018. Thus, modern pharmacological data including the clinical efficacy and side effects have not been reported. […] The clinical efficacy of colistin sulfate in the current study was similar to the efficacy of polymyxin B reported by [Lu et al. (2021]), who performed a retrospec ...

Series [3] is described as follows: Population pharmacokinetic modeling (NONMEM) of intravenous colistin sulfate from plasma concentrations in critically ill patients. The series is classed as in vivo, human. The text has this:
This retrospective, observational study was designed in accordance with the Declaration of Helsinki and was approved by the Ethical Committees of the First Affiliated Hospital of Wenzhou Medical University, China ([2022]036). Adult patients receiving colistin sulfate for confirmed multi-resistant Gram-negative bacterial infections from January 2020 to December 2021 at the First Affiliated Hospital of Wenzhou Medical University were selected. The inclusion criteria were as follows: a) ≥18 years of age; b) receiving colistin sulfate (Shanghai New Asia Pharmaceuticals, Shanghai, China) for at least 3 days; and c) at least one plasma concentration of colistin was collected.
The decision to administer colistin sulfate and its dosing regimen (dose amount, dosing interval, ways of administration, and treatment duration) was made by the attending physician. A loading dose of 1 million IU and a daily dose of 1.5 million IU divided into 2–3 times (maintenance dose) administered using an intravenous drip was recommended by the label sheet of colistin sulfate. In addition, for patients with pulmonary infection, inhalation of colistin sulfate (250,000 IU q12 h) was combinedly used; for patients with intracranial infection, colistin sulfate (50,000 IU q24 h) administered by the intraventricular/intrathecal (IVT/IT) route was combinedly used.
Plasma samples of colistin sulfate were collected after reaching the steady-state (attained after at least six doses). Dates and exact time of colistin sulfate administration and plasma sample collection were able to be indexed from the medical records. Plasma samples were separated by centrifugation for 5 min at 15,000 rpm immediately after sampling. The quantification of plasma concentration of colistin sulfate was performed using a validated high-performance liquid chromatography-tandem mass spectrometry assay ([Gobin et al., 2010]). The calibration ranges for colistin were 0.1–20 μg/ml. The method validations including calibration curve, selectivity, accuracy, precision, matrix effect, recovery, and stability met the requirement of FDA principles.
PopPK analysis was performed using the nonlinear mixed-effects modeling program NONMEM (version 7.4, Icon Development Solutions, Ellicott City, MD, USA) and Pirana (version 2.9.7). R (version 3.6.0) and Xpose (version 4.3.2) software packages were applied to generate diagnostic plots.
One- and two-compartment structural models with first-order elimination were explored for the concentration–time profiles of colistin sulfate. Between-subject variability (BSV) was assessed using an exponential function. Residual variability was assessed using additive, proportional, or combined (additive plus proportional) error models. The base model was selected based on the visual inspection of diagnostic plots and goodness-of-fit criteria, including precision and plausibility of parameter estimation and improvement of the objective function value (OFV).
Relationships between individual empirical Bayesian estimates of PK parameters and patient covariates were examined visually. Covariates were included using a stepwise forward selection process until no further decrease in OFV was observed. All of the significant covariates were then incorporated into the basic model to construct a full model. The included covariates were further assessed using backward elimination. The additional criterion for retaining the covariate in the final model was the decrease in the unexplained BSV and increase in PK parameter estimate precision.
Goodness-of-fit plots, nonparametric bootstrap, and visual predictive check were performed to evaluate the final model and parameter estimates. A nonparametric bootstrap procedure was conducted to assess the performance and stability of the final model. Random sampling with replacement was utilized to generate 1,000 replicate datasets using the individual as the sampling unit. […]

For series [4] the following is noted: critically ill patients, ref Cheah et al., 2015, cited from earlier work.
Series [5] relates to isolates with lower MIC values (≤2 μg/ml). Conditions: isolates with MIC ≤2 μg/ml for both compounds; ref Sader et al., 2015; cited from earlier work.
Description: as §1

Series [6] is described as follows: Acute kidney injury (RIFLE criteria) and colistin sulfate-related nephrotoxicity (Naranjo criteria). The series is classed as in vivo, human. The conditions noted are these: 42 patients, not considered colistin's nephrotoxicity by Naranjo criteria. As to the method:
Acute kidney injury (AKI) during the treatment of colistin sulfate was assessed using RIFLE criteria. AKI was defined as a 1.5-fold or more increase in serum creatinine and/or a decrease in the glomerular filtration rate (GFR) of 25% or more ([Han et al., 2022]). The definition of nephrotoxicity caused by colistin sulfate was further confirmed using the Naranjo criteria.

As for polymyxin B sulfate, in series [1] (Chinese adult patients, ref Wang et al., 2020), the “median CL” value is recorded as 1.78 L/h. Moreover, the CL in series [1] (mean ± SD, adult critically ill patients, 112 concentrations from 32 patients, ref Yu et al., 2021, SD) is listed as 1.75 L/h. Moreover, in series [1] (one-compartment model, adult critically ill patients, ref Yu et al., 2021), the V is 20.5 L. The “Cmin to prevent polymyxin B-related nephrotoxicity” value in series [2] was “below 3.13 mg/L”. Moreover, in the series with CRO, the “patients who achieved clinical success” value is reported as 57.6%.

Turning to `CC[C@H](C)CCCCC(=O)N[C@@H](CCN)C(=O)N[C@H](C(=O)N[C@@H](CCN)C(=O)N[C@H]1CCNC(=O)[C@H]([C@@H](C)O)NC(=O)[C@H](CCN)NC(=O)[C@H](CCN)NC(=O)[C@H](CC(C)C)NC(=O)[C@@H](CC(C)C)NC(=O)[C@H](CCN)NC1=O)[C@@H](C)O` [colistin sulfate] (X1-[Dab]T[Dab][Dab][Dab][dL]L[Dab][Dab]T; lactam 4-C), in series [3] (final model, covariate coefficient in CL = 0.994 + 0.525×CrCL/66.47), the “CrCL on CL (θ1)” value was 0.525. The “TVV (typical value of volume of distribution)” value in series [3] (final model, one-compartment) came out at 20.7 L. Besides, in series [3] (final model, one-compartment, CL = 0.994 + 0.525×CrCL/66.47), the “TVCL (typical value of clearance)” value is reported as 0.994 L/h. Also, the clearance is 27.2 mL/min in series [3] (human, plasma, iv, base model (Table S1), read-out: TVCL (converted)) and 29 mL/min in series [3] (human, plasma, iv, mean ± SD across all 42 patients, SD, read-out: CL, individual empirical Bayesian estimate (converted)). Besides, the Vd in series [3] (human, plasma, iv, base model (Table S1), read-out: TVV) worked out at 20.6 L; in series [3] (human, plasma, iv, final model, one-compartment, read-out: TVV (typical value of volume of distribution)) it was 20.7 L. In addition, in series [3] (human, plasma, iv, mean ± SD, MAP Bayesian estimate per patient with the final PK model, SD, read-out: AUC (AUC0-24 at steady state, AUC0-24,ss)), the AUC(0-t) was 39400 ± 14500 ng·h/mL. The plasma unbound fraction in series [4] is listed as 0.5; in series [4] (listed as colistin) it was “about 0.5”. Moreover, the “potency compared with polymyxin B” value in series [5] is “slightly greater potency than polymyxin B”. Also, the “patients who developed AKI during the treatment” value in series [6] is given as “two”.
